Literature values, collected in PMC8217170, “Phase Ib dose-escalation study of the hypoxia-modifier Myo-inositol trispyrophosphate in patients with hepatopancreatobiliary tumors” (Nature Communications, 2021).

Experiments:
hepatocellular carcinoma = test system: hepatocellular carcinoma; parameters: method as in ref 10 (supplementary references); conditions: syngeneic, orthotopic rat model of hepatocellular carcinoma; ref 10 (supplementary references); cited from earlier work
pancreatic carcinoma = test system: pancreatic carcinoma; parameters: method as in ref 15 (supplementary references); conditions: 100 mg/kg gemcitabine; ref 15 (supplementary references); cited from earlier work

| Compound | Rats alive after 100 days (hepatocellular carcinoma) | Survival (pancreatic carcinoma) [days] |
| --- | --- | --- |
| COc1cccc2c1C(=O)c1c(O)c3c(c(O)c1C2=O)C[C@@](O)(C(=O)CO)C[C@@H]3O[C@H]1C[C@H](N)[C@H](O)[C@H](C)O1 [doxorubicin, reference compound] | one out of ten |  |
| Nc1ccn([C@@H]2O[C@H](CO)[C@@H](O)C2(F)F)c(=O)n1 [gemcitabine, reference compound] |  | 63 |
